The nature of the data set: Stability studies of dissolved products versus temperature. The class given is physicochemical. To be noted: in aqueous solution.

For `CCN1CCN(C(=O)N[C@@H](C(=O)N[C@@H]2C(=O)N3[C@@H]2SC(C)(C)[C@@H]3C(=O)O)c2ccccc2)C(=O)C1=O` [Piperacillin], the “Inflexion point of degradation of dissolved product with temperature” value is “around 15 °C”.
In the case of `C[C@]1(Cn2ccnn2)[C@H](C(=O)O)N2C(=O)C[C@H]2S1(=O)=O` [Tazobactam] it was “around 15 °C”.
